Laboratory results reported in patent US9458172B2, “Pyridinyl and pyrimidinyl sulfoxide and sulfone derivatives” (priority 2012, dated 2016).
Where two headings read alike, the source gives them in different places.

Legend:
tumor cell lines = settings: broad range of tumor cell lines; cited from earlier work
A2780 cells = experiment: In-Vitro Cell Proliferation Assay (SRB); settings: Homo sapiens, A2780, 72 h
NAMPT = NAMPT (Homo sapiens (Human), UniProt P43490); experiment: Biochemical Inhibition Assay (NAMPT enzymatic reaction, NMN quantified by mass spectrometry); settings: 33 nM recombinant His-tagged NAMPT, 1 μM NAM, 30 min at rt
Summary of the method: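 His-tagged human NAMPT from E. coli preincubated 15 min at rt with compound in 50 mM Hepes pH 7.5, 50 mM NaCl, 5 mM MgCl2, 1 mM THP, then reacted 30 min at rt with 1 μM NAM, […] PRPP, 2.5 mM ATP. NMN quantified by RapidFire mass spectrometry, normalized to L-Cystathionine, background subtracted.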

mouse mammary carcinoma = mouse mammary carcinoma model; cited from earlier work
[1] = read-out: Cell Proliferation (IC50)
[2] = read-out: Cell Proliferation (IC50), A2780 cells, 72 h, sulforhodamine B

Chain of NAMPT (P43490 whole entry): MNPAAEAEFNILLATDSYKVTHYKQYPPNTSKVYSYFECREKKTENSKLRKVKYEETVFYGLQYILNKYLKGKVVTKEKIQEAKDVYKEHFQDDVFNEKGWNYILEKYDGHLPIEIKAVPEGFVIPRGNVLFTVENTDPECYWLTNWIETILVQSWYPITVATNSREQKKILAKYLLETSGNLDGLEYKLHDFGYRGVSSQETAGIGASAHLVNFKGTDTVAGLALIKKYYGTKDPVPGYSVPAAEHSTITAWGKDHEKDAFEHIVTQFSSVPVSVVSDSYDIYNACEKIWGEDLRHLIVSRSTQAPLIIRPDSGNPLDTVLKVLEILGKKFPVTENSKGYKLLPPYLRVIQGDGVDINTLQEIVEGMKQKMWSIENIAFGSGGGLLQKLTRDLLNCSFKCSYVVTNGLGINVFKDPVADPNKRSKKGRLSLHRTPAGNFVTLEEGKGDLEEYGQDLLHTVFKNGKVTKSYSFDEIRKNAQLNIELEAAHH

| IC50 (A2780 cells; [1]) [nM] | IC50 (NAMPT) [nM] | Compound | also measured |
| --- | --- | --- | --- |
| – | – | N#CN=C(NCCCCCCOc1ccc(Cl)cc1)Nc1ccncc1 [CHS-828] | cell growth (tumor cell lines): potently inhibit cell growth |
| 217 | 290 | O=C(NCc1ccc(S(=O)(=O)c2cccc(N3CCOCC3)c2)cn1)c1cnc2[nH]ncc2c1 [Example 157, N-[[5-(3-morpholinophenyl)sulfonyl-2-pyridyl]methyl]-1H-pyrazolo[3,4-b]pyridine-5-carboxamide] | – |
| 2000 | 156 | N#Cc1cccc(S(=O)(=O)c2ccc(CNC(=O)N3Cc4ccncc4C3)nc2)c1 [Example 158, N-[[5-(3-cyanophenyl)sulfonyl-2-pyridyl]methyl]-1,3-dihydropyrrolo[3,4-c]pyridine-2-carboxamide] | – |
| 52.8 | 253 | O=C(NCc1ccc(S(=O)(=O)C2CCN(C3CCOCC3)CC2)cn1)c1ccc2nccn2c1 [Example 161, N-[[5-[(1-tetrahydropyran-4-yl-4-piperidyl)sulfonyl]-2-pyridyl]methyl]imidazo[1,2-a]pyridine-6-carboxamide] | – |
| 295 | 1830 | O=C(NCc1ccc(S(=O)(=O)C2CCN(C3CCOCC3)CC2)cn1)c1cnc2[nH]ncc2c1 [Example 162, N-[[5-[(1-tetrahydropyran-4-yl-4-piperidyl)sulfonyl]-2-pyridyl]methyl]-1H-pyrazolo[3,4-b]pyridine-5-carboxamide] | – |
| 25.3 | 49.5 | O=C(NCc1ccc(S(=O)(=O)c2cncc(C(F)(F)F)c2)cn1)c1cc2ccncc2o1 [Example 163, N-[[5-[[5-(trifluoromethyl)-3-pyridyl]sulfonyl]-2-pyridyl]methyl]furo[2,3-c]pyridine-2-carboxamide] | – |
| 49.4 | 143 | O=C(NCc1ccc(S(=O)(=O)c2cncc(Cl)c2)cn1)c1cnc2[nH]ncc2c1 [Example 164, N-[[5-[(5-chloro-3-pyridyl)sulfonyl]-2-pyridyl]methyl]-1H-pyrazolo[3,4-b]pyridine-5-carboxamide] | – |
| 64.4 | 217 | O=C(NCc1ccc(S(=O)(=O)c2cncc(C(F)(F)F)c2)cn1)c1cnc2[nH]ncc2c1 [Example 165, N-[[5-[[5-(trifluoromethyl)-3-pyridyl]sulfonyl]-2-pyridyl]methyl]-1H-pyrazolo[3,4-b]pyridine-5-carboxamide] | – |
| 91 | 224 | O=C(NCc1ccc(S(=O)(=O)C2CCN(CC(F)(F)F)CC2)cn1)c1cc2cnccc2[nH]1 [Example 166, N-[[5-[[1-(2,2,2-trifluoroethyl)-4-piperidyl]sulfonyl)-2-pyridyl]methyl]-1H-pyrrolo[3,2-c]pyridine-2-carboxamide] | – |
| 6.7 | 23 | O=C(NCc1ccc(S(=O)(=O)c2cnc(N3CCOCC3)nc2)cn1)c1ccc2nccn2c1 [Example 167, N-[[5-(2-morpholinopyrimidin-5-yl)sulfonyl-2-pyridyl]methyl]imidazo[1,2-a]pyridine-6-carboxamide] | – |
| 14.9 | 60.8 | O=C(NCc1ccc(S(=O)(=O)c2cncc(C(F)(F)F)c2)cn1)c1ccc2nccn2c1 [Example 168, N-[[5-[[5-(trifluoromethyl)-3-pyridyl]sulfonyl]-2-pyridyl]methyl]imidazo[1,2-a]pyridine-6-carboxamide] | – |
| 26.9 | 66.4 | O=C(NCc1ccc(S(=O)(=O)c2cncc(Cl)c2)cn1)c1cc2ccncc2o1 [Example 169, N-[[5-[(5-chloro-3-pyridyl)sulfonyl]-2-pyridyl]methyl]furo[2,3-c]pyridine-2-carboxamide] | – |
| 25.4 | 49.1 | O=C(NCc1ccc(S(=O)(=O)c2cncc(C(F)(F)F)c2)cn1)N1Cc2ccncc2C1 [Example 170, N-[[5-[[5-(trifluoromethyl)-3-pyridyl]sulfonyl]-2-pyridyl]methyl]-1,3-dihydropyrrolo[3,4-c]pyridine-2-carboxamide] | – |
| – | 62 | CCCn1cc(S(=O)(=O)c2ccc(CNC(=O)c3cc4cnccc4[nH]3)nc2)cn1 [Example 171, N-[[5-(1-propylpyrazol-4-yl)sulfonyl-2-pyridyl]methyl]-1H-pyrrolo[3,2-c]pyridine-2-carboxamide] | IC50 (A2780 cells; [2]): 51.2 nM |
| 106 | 249 | CC(C)CN1CCC([S+]([O-])c2ccc(CNC(=O)c3ccc4nccn4c3)nc2)CC1 (stereo not drawn) [Example 172, N-[[5-[(1-isobutyl-4-piperidyl)sulfinyl]-2-pyridyl]methyl]imidazo[1,2-a]pyridine-6-carboxamide] | – |
| 63.1 | 202 | O=C(NCc1ccc([S+]([O-])C2CCN(CC(F)(F)F)CC2)cn1)c1ccc2nccn2c1 (stereo not drawn) [Example 173, N-[[5-[[1-(2,2,2-trifluoroethyl)-4-piperidyl]sulfinyl]-2-pyridyl]methyl]imidazo[1,2-a]pyridine-6-carboxamide] | – |
| 116 | 217 | N#Cc1cncc(S(=O)(=O)c2ccc(CNC(=O)c3cc4ccncc4o3)nc2)c1 [Example 174, N-[[5-[(5-cyano-3-pyridyl)sulfonyl]-2-pyridyl]methyl]furo[2,3-c]pyridine-2-carboxamide] | – |
| – | 32 | CCn1cc(S(=O)(=O)c2ccc(CNC(=O)N3Cc4ccncc4C3)nc2)cn1 [Example 177, N-[[5-(1-ethylpyrazol-4-yl)sulfonyl-2-pyridyl]methyl]-1,3-dihydropyrrolo[3,4-c]pyridine-2-carboxamide] | IC50 (A2780 cells; [2]): 264 nM |
| 2000 | 2000 | O=C(NCc1ccc(S(=O)(=O)c2ccccc2)cn1)N1Cc2cn[nH]c2C1 [Example 178, N-[[5-(benzenesulfonyl)-2-pyridyl]methyl]-4,6-dihydro-1H-pyrrolo[3,4-c]pyrazole-5-carboxamide] | – |
| – | 1380 | Cn1ncc2c1CN(C(=O)NCc1ccc(S(=O)(=O)c3ccccc3)cn1)C2 [Example 179, N-[[5-(benzenesulfonyl)-2-pyridyl]methyl]-1-methyl-4,6-dihydropyrrolo[3,4-c]pyrazole-5-carboxamide] | IC50 (A2780 cells; [2]): 2000 nM |
| 2000 | 562 | O=C(NCc1ccc(S(=O)(=O)N2CCCCC2)cn1)N1Cc2cn[nH]c2C1 [Example 180, N-[[5-(1-piperidylsulfonyl)-2-pyridyl]methyl]-4,6-dihydro-1H-pyrrolo[3,4-c]pyrazole-5-carboxamide] | – |
| 40.5 | 25.1 | O=C(NCc1ncc(S(=O)(=O)c2cc(F)cc(F)c2)cn1)c1cc2ccncc2o1 [Example 182, N-[[5-(3,5-difluorophenyl)sulfonyl-pyrimidin-2-yl]methyl]furo[2,3-c]pyridine-2-carboxamide] | – |
| – | 99.2 | O=C(NCc1ccc(S(=O)(=O)c2ccccc2)cn1)c1ccc2nccn2c1 [Example 184, N-[[5-(benzenesulfonyl)-2-pyridyl]methyl]imidazo[1,2-a]pyridine-6-carboxamide] | IC50 (A2780 cells; [2]): 2000 nM |
| 495 | 20.2 | O=C(NCc1ccc(S(=O)(=O)c2ccccc2)cn1)c1cnc2nccn2c1 [Example 185, N-[[5-(benzenesulfonyl)-2-pyridyl]methyl]imidazo[1,2-a]pyrimidine-6-carboxamide] | – |
| – | 125 | O=C(NCc1ccc(S(=O)(=O)c2ccccc2)cn1)c1cc2ccncc2s1 [Example 186, N-[[5-(benzenesulfonyl)-2-pyridyl]methyl]thieno[2,3-c]pyridine-2-carboxamide] | IC50 (A2780 cells; [2]): 918 nM |
| 2000 | 433 | O=C(NCc1ncc(S(=O)(=O)c2ccccc2)cn1)c1cc2ccncc2s1 [Example 187, N-[[5-(benzenesulfonyl)pyrimidin-2-yl]methyl]thieno[2,3-c]pyridine-2-carboxamide] | – |
| – | – | O=C(/C=C/c1cccnc1)NCCCCC1CCN(C(=O)c2ccccc2)CC1 [FK866] | NAD levels (mouse mammary carcinoma): reduce NAD levels; tumor growth (mouse mammary carcinoma): induce a delay in tumor growth; tumor radiosensitivity (mouse mammary carcinoma): enhance tumor radiosensitivity |
